According to ChEMBL document CHEMBL1154594, “Delta agonist hydroxy bioisosteres: the discovery of 3-((1-benzylpiperidin-4-yl){4-[(diethylamino)carbonyl]phenyl}amino)benzamide with improved delta agonist activity and in vitro metabolic stability” (Bioorg Med Chem Lett, 2009):

Columns and labels:
[1] = Intrinsic clearance in human liver microsomes; type: ADME, Microsome
[2] = Intrinsic clearance in rat liver microsomes; type: ADME, Microsome

SMILES: CCN(CC)C(=O)c1ccc(N(c2cccc(C(N)=O)c2)C2CCN(Cc3ccccc3)CC2)cc1
- microsomal CLint [1]: 71 µL/min/mg
- microsomal CLint [2]: 62 µL/min/mg

SMILES: CCN(CC)C(=O)c1ccc(N(c2cccc(NC(=O)OC)c2)C2CCN(Cc3ccccc3)CC2)cc1
- microsomal CLint [1]: 200 µL/min/mg

SMILES: CCN(CC)C(=O)c1ccc(N(c2cccc(O)c2)C2CCN(Cc3ccccc3)CC2)cc1
- microsomal CLint [1]: 286 µL/min/mg
- microsomal CLint [2]: 384 µL/min/mg

SMILES: CCN(CC)C(=O)c1ccc(N(c2cccc(NC(C)=O)c2)C2CCN(Cc3ccccc3)CC2)cc1
- microsomal CLint [1]: 139 µL/min/mg

SMILES: CCN(CC)C(=O)c1ccc(N(c2cccc(NS(C)(=O)=O)c2)C2CCN(Cc3ccccc3)CC2)cc1
- microsomal CLint [1]: 96 µL/min/mg
